According to patent US4808618A, “Substituted 1,3-dialkylpyrido[4,3-d]pyrimidine-2,4-diones” (Nippon Zoki Pharmaceutical Co., Ltd., priority 1986, dated 1989):

Assays:
[1] = Acute toxicity test (oral, LD50 by Litchfield-Wilcoxon's method); settings: mouse, in vivo, ICR-strain male mice, groups of 5, mortality for 14 days
Protocol: The test compounds were orally administered to groups of 5 ICR-strainmale mice. LD50 value of the compound of the present invention was calculated by the Litchfield-Wilcoxon's method based on mortality for 14 days after drug administration.

[2] = tested on: PCA (Passive Cutaneous Anaphylaxis) reaction; test: PCA (Passive Cutaneous Anaphylaxis) reaction in rats, anti-allergic effect; type: in vivo, rat (Wister-strain; settings: 20 mg/kg oral, 1 hour before challenge; Wister-strain male rats; dye absorbance at 620 nm
Protocol: PCA (Passive Cutaneous Anaphylaxis) reaction in rats was taken as an index to an anti-allergic effect of the compound of the present invention.
In order to perform sensitization, anti-DNP-Asc (dinitrophenylated Ascaris extracts) serum diluted with saline was injected intradermally at 4 sites on the shaved back of groups of 6 Wister-strain male rats (6 weeks of age). 1 hour after oral administration of the test drug, the mixture of equivalent amount of DNP-Asc (5 mg/ml) and 2% Evans blue were intravenously injected to generate PCA reaction. 30 minutes thereafter, rats were killed by decapitation and exsanguinated. The skin was opened in order to evaluate the leakage of blue dye. The obtained skin was dissolved in 2N potassium hydroxide, then 2N phosphoric acid and acetone were added thereto. The amount of dye was determined by measurement of absorbance at 620 nm after centrifugation.

Row | SMILES | LD50 at 336 h [1] | Inhibition (PCA reaction) [2]
1 | Cn1c(=O)c2cnccc2n(C)c1=O [Compound 1, 1,3-dimethylpyrido[4,3-d]pyrimidine-2,4-dione] | 400 mg/kg | 85.3%
2 | Cn1c(=O)c2c(N)nccc2n(C)c1=O [Compound 3, 5-amino-1,3-dimethylpyrido[4,3-d]pyrimidine-2,4-dione] | 710 mg/kg | 77.3%
3 | CCn1c(=O)c2c(N)nccc2n(CC)c1=O [Compound 4, 5-amino-1,3-diethylpyrido[4,3-d]pyrimidine-2,4-dione] | – | 89.3%
4 | CNc1nccc2c1c(=O)n(C)c(=O)n2C [Compound 6, 5-methylamino-1,3-dimethylpyrido[4,3-d]pyrimidine-2,4-dione] | 720 mg/kg | 92.0%
5 | CCn1c(=O)c2c(NC)nccc2n(CC)c1=O [Compound 7, 5-methylamino-1,3-diethylpyrido[4,3-d]pyrimidine-2,4-dione] | – | 72.7%
6 | CC(C)Nc1nccc2c1c(=O)n(C)c(=O)n2C [Compound 8, 5-isopropylamino-1,3-dimethylpyrido[4,3-d]pyrimidine-2,4-dione] | 700 mg/kg | 73.4%
7 | Cn1c(=O)c2[nH]cnc2n(C)c1=O [Theophylline, reference compound] | – | 78.7%
